Measured values reported in US6143764A, “Quinoline and quinazoline derivatives inhibiting platelet-derived growth factor receptor autophosphorylation and pharmaceutical compositions containing the same” (priority 1995, dated 2000).

Tests used:
[1] = test system: collagen-induced arthritis in mice; test: Effect on collagen-induced arthritis in mice; assay type: in vivo, mouse (DBA/lJNCrj); settings: for Number of mice with arthritis/total mice: 16 days; for Incidence of collagen-induced arthritis: 16 days (vehicle 70)
L-27 (lung) = test: Antitumor effect against L-27 lung tumor in nude mice; assay type: in vivo; settings: 100 mg/kg intraperitoneally once a day, 9 days
Experimental: (§1) Human glioma, GLO7 (obtained from the Central Institute for Experimental Animals), was transplanted into nude mice. When the tumor had grown to a volume of about 100 mm^3, the nude mice were divided into several groups of 4 animals so as to equalize the average tumor volumes of each group. The test drug was administered orally to animals in experimental groups 2 times a day for 14 consecutive days at 100 mg/kg, and the vehicle was administered to control animals. The tumor growth inhibition rate (TGIR, %) was calculated from the equation: TGIR=(1-Tx/Cx)×100, in which Cx is the tumor volume in the control mice and Tx is the tumor volume in the drug-treated mice, on day X, when the initial tumor volume at the time treatment was commenced is set 1.
(§2) In the same manner as described in 2, various types of tumor cells (obtained from the Central Institute for Experimental Animals) were transplanted into nude mice. When the tumor had grown to a volume of about 100 mm^3, the animals were allocated to several groups each consisting of 4 animals so as to equalize the average tumor volume of each group. Test drugs were administered intraperitoneally to animals in experimental groups once a day for 9 consecutive days at 100 mg/kg, and the vehicle was administered to control animals.

[2] = test system: mouse leukemia cells (P388); test: Antitumor effect against mouse leukemia cells (P388), survival of mice; assay type: in vivo; settings: CDF1 mice, 100 mg/kg intraperitoneally, 9 consecutive days
Experimental: P388 cells (1×10^5 cells), mouse leukemia cells obtained from ATCC, were inoculated intraperitoneally into CDF1 mice (obtained from Japan SLC, Inc.), and then the test compound was administered intraperitoneally for 9 consecutive days at the dose of 100 mg/kg. The drug-treated animals survived longer than control animals by 130%.

[3] = test system: human glioma cells (GLO7); test: Antitumor effect of compound number 43 against human glioma (GLO7), nude mice xenograft; assay type: in vivo; settings: 100 mg/kg orally 2 times a day, 14 days, test period about 4 weeks
Experimental: as §1, with “1. During the test period of about 4 weeks, the maximum TGIR value was 76%, and thus an excellent antitumor effect was observed.” for “1.”

St-4 (stomach) = test: Antitumor effect against St-4 stomach tumor in nude mice; assay type: in vivo; settings: 100 mg/kg intraperitoneally once a day, 9 days
Experimental: as §1, §2

COL-1 (colon) = test: Antitumor effect against COL-1 colon tumor in nude mice; assay type: in vivo; settings: 100 mg/kg intraperitoneally once a day, 9 days
Experimental: as §1, §2

PDGF receptor = biological target: T1, PDGF receptor (Rattus norvegicus, UniProt Q05030); test: PDGF receptor autophosphorylation inhibition in cultured rat mesangial cells; assay type: cell-based; settings: PDGF-BB 50 ng/ml
T1 construct: cultured rat mesangial cells which are known to have the PDGF receptor; endogenous in cells; host or cells: primary mesangial cells cultured from glomeruli of Wistar-Kyoto rats (Charles River Japan), more than 5 passages
Summary of the method: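 Growth-arrested rat mesangial cells (>5 passages, 0.5% FCS for 3 days) preincubated with drug in 0.1% BSA medium for 1 h at 37° C., then stimulated with 50 ng/ml human PDGF-BB for 10 min. Phosphotyrosine Western blot of ~180 kDa receptor band by densitometry, normalized to PDGF-stimulated (100%) and unstimulated (0%) wells.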

human glioma (GLO7) = test: Antitumor effect of the compounds against human glioma (GLO7), nude mice xenograft; assay type: in vivo; settings: Mus musculus, po, 216 h, read-out: Tumor growth inhibition rate (TGIR)
Experimental: Analogously to 2, human glioma cells, GLO7 (obtained from the Central Institute for Experimental Animals), was transplanted into nude mice. When the tumor had grown to a volume of about 100 mm^3, the nude mice were divided into several groups of 4 animals so as to equalize the average tumor volumes of each group. The test drug was administered orally to animals in experimental groups once a day for 9 consecutive days at 50 mg/kg, and the vehicle was administered to control animals. The tumor growth inhibition rate (TGIR, %) was calculated from the equation: TGIR=(1-Tx/Cx)×100, in which Cx is the tumor volume in the control mice and Tx is the tumor volume in the drug-treated mice, on day X, when the initial tumor volume at the time treatment was commenced is set 1.

[4] = test system: glomerulonephritis associated with mesangial cell growth in rats; test: Effect on nephritis associated with mesangial cell growth in rats (OX-7 induced glomerulonephritis); assay type: in vivo, Wistar-Kyoto rat; settings: 8 days
Experimental: Effect on nephritis associated with mesangial cell growth in rats
Groups of 6 Wistar-Kyoto male rats (7 weeks old, purchased from Charles River Japan, Inc.) were used. OX-7 (prepared according to Pathol. Int., 45, 409 (1995)), a monoclonal antibody against anti-rat Thy1.1, was injected intravenously into the tails of rats at a dose of 1.2 mg/kg to induce glomerulonephritis associated with mesangial cell growth and extracellular matrix accumulation. A test drug suspended in a vehicle, a 1% aqueous cremophor solution, was administered orally 2 times a day starting one day after an OX-7 injection for 8 consecutive days. On day 9, when pathological changes in glomeruli became markedly apparent, the rats were sacrificed and anatomized under anesthesia with ether, and left kidneys were taken out and fixed in formalin. The kidneys were embedded in paraffin and then sectioned thinly, and the sections were stained with a periodic acid-Schiff's reagent. The 20 glomeruli were arbitrarily selected for individual specimens thus prepared, and pathological sclerotic changes were scored as follows:
Average scores for sclerotic change of individual specimens were calculated to quantify the degree of glomerular sclerosis. Average scores of glomerular sclerosis for individual specimens of rat groups administered with the drug were compared with those for control groups administered with the vehicle only to calculate glomerular sclerosis inhibition rates (%). The significance of differences was determined by the Dunnet method after testing homoscedasticity according to the Bartlett method.

T1 sequence (Q05030 32-1097): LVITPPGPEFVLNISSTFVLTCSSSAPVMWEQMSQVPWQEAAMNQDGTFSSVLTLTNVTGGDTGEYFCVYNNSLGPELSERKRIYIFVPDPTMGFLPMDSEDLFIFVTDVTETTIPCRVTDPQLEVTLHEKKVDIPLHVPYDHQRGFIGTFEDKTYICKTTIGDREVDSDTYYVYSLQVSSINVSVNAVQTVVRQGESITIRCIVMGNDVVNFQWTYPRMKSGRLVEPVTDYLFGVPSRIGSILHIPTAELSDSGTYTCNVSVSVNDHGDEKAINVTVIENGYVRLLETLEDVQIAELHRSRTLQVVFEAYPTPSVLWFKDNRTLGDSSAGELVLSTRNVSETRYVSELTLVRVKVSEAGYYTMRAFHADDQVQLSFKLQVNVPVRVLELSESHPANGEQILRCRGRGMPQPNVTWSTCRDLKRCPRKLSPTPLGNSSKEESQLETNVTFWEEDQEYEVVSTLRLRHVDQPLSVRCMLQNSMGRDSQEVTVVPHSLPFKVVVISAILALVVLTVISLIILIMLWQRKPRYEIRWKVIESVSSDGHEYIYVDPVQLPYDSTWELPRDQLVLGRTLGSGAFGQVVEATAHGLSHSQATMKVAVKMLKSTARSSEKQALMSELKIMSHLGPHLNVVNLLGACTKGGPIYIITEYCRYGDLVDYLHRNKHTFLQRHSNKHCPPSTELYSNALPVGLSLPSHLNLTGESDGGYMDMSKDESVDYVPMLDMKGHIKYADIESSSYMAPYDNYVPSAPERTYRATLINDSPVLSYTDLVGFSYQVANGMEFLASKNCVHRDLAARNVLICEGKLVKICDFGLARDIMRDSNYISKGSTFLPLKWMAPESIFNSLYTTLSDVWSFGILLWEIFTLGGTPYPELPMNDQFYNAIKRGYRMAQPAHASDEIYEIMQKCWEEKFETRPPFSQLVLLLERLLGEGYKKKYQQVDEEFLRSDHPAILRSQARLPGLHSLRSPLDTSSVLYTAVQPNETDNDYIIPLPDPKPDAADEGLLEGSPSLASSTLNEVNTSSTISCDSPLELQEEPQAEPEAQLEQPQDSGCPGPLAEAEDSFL

Row | Structure (SMILES) | Number of mice with arthritis/total mice ([1]; 10 mg/kg intraperitoneally) | Incidence of collagen-induced arthritis ([1]; 10 mg/kg intraperitoneally) [%] | Number of mice with arthritis/total mice ([1]; 100 mg/kg intraperitoneally) | Incidence of collagen-induced arthritis ([1]; 100 mg/kg intraperitoneally) [%] | Tumor growth inhibition rate (TGIR) (L-27 (lung)) [%] | prolonged survival: drug-treated animals survived longer than control animals by [2] [%] | maximum tumor growth inhibition rate (TGIR) [3] [%] | Tumor growth inhibition rate (TGIR) (St-4 (stomach)) [%] | Tumor growth inhibition rate (TGIR) (COL-1 (colon)) [%] | IC50 (PDGF receptor) [nM] | inhibition in vivo at 50 mg/kg (human glioma (GLO7)) [%] | Glomerular sclerosis inhibition rate ([4]; 10 mg/kg oral 2 times a day, p < 0.05) [%] | Glomerular sclerosis inhibition rate ([4]; 30 mg/kg oral 2 times a day, p < 0.05) [%] | Glomerular sclerosis inhibition rate ([4]; 100 mg/kg oral 2 times a day, p < 0.01) [%]
1 | COc1ccc(NC(=O)Nc2ccc(Oc3ccnc4cc(OC)c(OC)cc34)cc2)cc1 [Compound 43, N-(4-Methoxyphenyl)-N'-{4-[(6,7-dimethoxy-4-quinolinyl)oxy]phenyl}urea] | 1/9 | 11 | 0/10 | 0 | 83 | 130 | 76 | 78 | 68 | 5 | – | – | – | –
2 | COc1cccc(NC(=O)Nc2ccc(Oc3ccnc4cc(OC)c(OC)cc34)cc2)c1 [Compound 58] | – | – | – | – | 96 | – | – | 86 | 74 | – | 57 | – | – | –
3 | COc1cc2nccc(Oc3ccc(C(=O)c4ccc(C(C)(C)C)cc4)cc3)c2cc1OC [Compound 32, (4-t-Butylphenyl){4-[(6,7-dimethoxy-4-quinolyl)oxy]phenyl}methanone] | – | – | – | – | – | – | – | – | – | 300 | – | 11.7 | 10.2 | 13.7
